In data set [1] the test system is Puccinia recondita f. sp. tritici. Briefly: Puccinia recondita f. sp. tritici / wheat / leaf disc preventative (brown rust). To be noted: foliar, vs untreated control. It counts as in vivo. How it is done: (§1) Leaf disks or leaf segments of various plant species are cut from plants grown in a greenhouse. The cut leaf disks or segments are placed in multiwell plates (24-well format) onto water agar. The leaf disks are sprayed with a test solution before (preventative) or after (curative) inoculation. Compounds to be tested are prepared as DMSO solutions (max. 10 mg/mL) which are diluted to the appropriate concentration with 0.025% Tween20 just before spraying. The inoculated leaf disks or segments are incubated under defined conditions (temperature, relative humidity, light, etc.) according to the respective test system. A single evaluation of disease level is carried out 3 to 14 days after inoculation, depending on the pathosystem. Percent disease control relative to the untreated check leaf disks or segments is then calculated.
Wheat leaf segments cv. Kanzler are placed on agar in multiwell plates (24-well format) and sprayed with the formulated test compound diluted in water. The leaf disks are inoculated with a spore suspension of the fungus 1 day after application. The inoculated leaf segments are incubated at 19° C. and 75% rh under a light regime of 12 h light/12 h darkness in a climate cabinet and the activity of a compound is assessed as percent disease control compared to untreated when an appropriate level of disease damage appears in untreated check leaf segments (7-9 days after application).

For data set [2] the test system is unchanged. Kind of data set: Puccinia recondita f. sp. tritici / wheat / leaf disc curative (brown rust). Type of data set: in vivo. To be noted: foliar, vs untreated control. How it is done:
Leaf disks or leaf segments of various plant species are cut from plants grown in a greenhouse. The cut leaf disks or segments are placed in multiwell plates (24-well format) onto water agar. The leaf disks are sprayed with a test solution before (preventative) or after (curative) inoculation. […] The inoculated leaf disks or segments are incubated under defined conditions (temperature, relative humidity, light, etc.) according to the respective test system. […] Percent disease control relative to the untreated check leaf disks or segments is then calculated. Wheat leaf segments cv. Kanzler are placed on agar in multiwell plates (24-well format). The leaf segments are inoculated with a spore suspension of the fungus. […] The formulated test compound diluted in water is applied 1 day after inoculation.

Data set [3] relates to Phakopsora pachyrhizi. Kind of data set: Phakopsora pachyrhizi / soybean / leaf disc preventative (Asian soybean rust). It counts as in vivo. As to conditions: foliar, 288 h, vs untreated control. How it is done:
as §1
Soybean leaf disks are placed on agar in multiwell plates (24-well format) and sprayed with test solutions. After drying, the leaf disks are inoculated with a spore suspension of the fungus. After appropriate incubation the activity of a compound is assessed approx.12 dpi (days after inoculation) as preventive fungicidal activity.

In data set [4] the test system is Glomerella lagenarium (Colletotrichum lagenarium). Briefly: Glomerella lagenarium (Colletotrichum lagenarium) liquid culture / cucumber / preventative (anthracnose). Type of data set: cell-based. As to conditions: Colletotrichum orbiculare, vs untreated control. How it is done: Mycelia fragments or conidia suspensions of a fungus prepared either freshly from liquid cultures of the fungus or from cryogenic storage, are directly mixed into nutrient broth. DMSO solutions of the test compound (max. 10 mg/mL) are diluted with 0.025% Tween20 by a factor of 50 and 10 μl of this solution is pipetted into a microtiter plate (96-well format). The nutrient broth containing the fungal spores/mycelia fragments is then added to give an end concentration of the tested compound. The test plates are incubated in the dark at 24° C. and 96% relative humidity. The inhibition of fungal growth is determined photometrically after 2 to 7 days, depending on the pathosystem, and percent antifungal activity relative to the untreated check is calculated.
Conidia of the fungus from cryogenic storage are directly mixed into nutrient broth (PDB potato dextrose broth). After placing a (DMSO) solution of test compound into a microtiter plate (96-well format), the nutrient broth containing the fungal spores is added.

The subject of data set [5] is Glomerella lagenarium syn. Colletotrichum lagenarium. Briefly: Example B1: mixtures, preventative activity against Glomerella lagenarium syn. Colletotrichum lagenarium, liquid culture. It counts as cell-based. As to conditions: Colletotrichum orbiculare; component A alone, 0.03 ppm. In outline:
(§2)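 Fungal conidia mixed into potato dextrose broth were added to test compounds or mixtures in DMSO in microtiter wells. Fungicidal activity was scored on a 100-0 scale (100 = no disease growth; 0 = well fully covered by mycelium). Synergy was assessed by the Colby formula, comparing observed (O) with expected (E) action.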

For data set [6], the system named is Septoria glycines. Kind of data set: Example B2: mixtures, preventative activity against Septoria glycines (brown spot), liquid culture. To be noted: Septoria glycines, component A alone, 100-0 scale. Type of data set: cell-based. In outline:
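Conidia from fresh culture mixed into potato dextrose broth and added to test compounds in DMSO in 96-well plates. Growth inhibition scored 100-0 (100 = no growth; 0 = well covered by mycelium); synergy of mixtures judged by Colby expected-action (O-E).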

In data set [7] the test system is Septoria tritici. Briefly: Example B3: mixtures, preventative activity against Septoria tritici (leaf blotch), liquid culture. Type of data set: cell-based. To be noted: component A alone; for inhibition at 0.03 ppm: read-out: Activity (%) A. In outline:
as §2

Data set [8] has as its system Mycosphaerella arachidis syn. Cercospora arachidicola. Briefly: Example B4: mixtures, preventative activity against Mycosphaerella arachidis syn. Cercospora arachidicola (brown leaf spot of peanut), liquid culture. Type of data set: cell-based. To be noted: Mycosphaerella arachidis, component A alone. The source says: This occurs whenever the action of an active ingredient combination is greater than the sum of the actions of the individual components. The action to be expected E for a given active ingredient combination obeys the so-called COLBY formula and can be calculated as follows (COLBY, S. R. “Calculating synergistic and antagonistic responses of herbicide combination”. Weeds, Vol. 15, pages 20-22; 1967):
If the action actually observed (O) is greater than the expected action (E), then the action of the combination is super-additive, i.e. there is a synergistic effect. In mathematical terms, synergism corresponds to a positive value for the difference of (O-E). In the case of purely complementary addition of activities (expected activity), said difference (O-E) is zero. A negative value of said difference (O-E) signals a loss of activity compared to the expected activity.
Conidia of the fungus from cryogenic storage were directly mixed into nutrient broth (PDB potato dextrose broth). A DMSO solution of the test compounds was placed into a microtiter plate (96-well format) and the nutrient broth containing the fungal spores was added to it.
Cercospora arachidicola (Brown leaf spot of peanut). Fungicidal activity was evaluated on a 100-0 scale (100=no disease growth; 0=well completely covered by mycelium).

Data set [9] relates to Phakopsora pachyrhizi. Briefly: Example B5: preventative activity against Phakopsora pachyrhizi (soybean rust), whole soybean plants sprayed, leaf disks inoculated. Type of data set: in vivo. As to conditions: applied alone. In short, it runs like this:
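Soybean plants sprayed 4 weeks after planting at rates in g a.i./ha; leaf disks from the first trifoliate cut 1 day later and inoculated with rust, five repetitions per rate. Scored 11–14 days post-inoculation relative to untreated infested check (100 = no disease, 0 = heavy infestation).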

Where [10] appears, read: Zymoseptoria tritici, 100-0 scale.

“And” between values parts separate entries of the source, which are not always exact repeats. Identical values can stand only once. Like-named read-outs stand apart in the source and are kept apart here.

A word on the pest or weed control: it is how far the test organism was held down. A low value points to a weak effect. The inhibition of growth is the change of the read-out against control, counted positive when it falls. A word on the melting point: it is the temperature, or range, at which the solid turns liquid.

`CO/C=C(\Oc1cc(-n2ccc(C3CC3)n2)ccc1C)C(=O)OC` [X.07, methyl (Z)-2-[5-(3-cyclopropylpyrazol-1-yl)-2-methyl-phenoxy]-3-methoxy-prop-2-enoate] yielded a melting point of 115 to 118 °C. Further, in [1], the pest or weed control at 200 ppm was no less than 80%. Further, the pest or weed control at 200 ppm in data set [2] was no less than 80%. The same compound displayed a pest or weed control at 67 ppm in [3] of no less than 80%. In data set [4], this compound returned an inhibition of growth at 6.7 ppm of no less than 80%.

`CO/C=C(\Oc1cc(-n2ccc(C(C)C)n2)ccc1C)C(=O)OC` [X.06, methyl (Z)-2-[5-(3-isopropylpyrazol-1-yl)-2-methyl-phenoxy]-3-methoxy-prop-2-enoate]: the melting point is 88 to 91 °C. Also, the pest or weed control at 200 ppm in data set [1] was no less than 80%. For the same compound, the pest or weed control at 200 ppm in [2] is no less than 80%. The compound also registered a pest or weed control at 67 ppm in [3] of no less than 80%. This compound also returned an inhibition of growth at 6.7 ppm in data set [4] of no less than 80%. The inhibition at 0.03 ppm in data set [5] worked out at 20%. Also, in data set [6], the inhibition at 0.003125 ppm turned out to be 0% and the inhibition at 0.00625 ppm was determined as 50%. Also, in data set [6] (0.025 ppm), the inhibition at 0.025 ppm is 90%. Moreover, in [7] (setting [10]), the inhibition at 0.00625 ppm came out at 50% and the inhibition at 0.03 ppm was found to be 70%. In [7] (0.003125 ppm, 100-0 scale), the “Activity (%) A” value is on record as 0%. Moreover, in [8], the inhibition at 0.003125 ppm worked out at 20% and the inhibition at 0.00625 ppm was found to be 50%. The inhibition at 2.25 g/ha in [9] (Phakopsora pachyrhizi, foliar, 2.25 g/ha, read-out: Observed Activity (% of untreated) against Phakopsora pachyrhizi) is 10%. Moreover, the inhibition at 9 g/ha in [9] (Phakopsora pachyrhizi, foliar, 9 g/ha, read-out: Observed Activity (% of untreated) against Phakopsora pachyrhizi) came out at 97%. For the same compound, the inhibition at 18 g/ha in data set [9] (Phakopsora pachyrhizi, foliar, 18 g/ha, read-out: Observed Activity (% of untreated) against Phakopsora pachyrhizi) was determined as 97%. In data set [9] (2.25 g/ha), the “Observed Activity (% of untreated) against Phakopsora pachyrhizi” value (shortened to “Observed Activity (% of untreated)”) was 13% and 9%; the “Observed Activity (%) (% of untreated) against Phakopsora pachyrhizi” value is recorded as 71%. In addition, in [9] (4.5 g/ha), the “Observed Activity (% of untreated)” value was 61% and 48% and 73%; the “Observed Activity (%) (% of untreated) against Phakopsora pachyrhizi” value is listed as 94%. Besides, the “Observed Activity (% of untreated)” value in data set [9] (9 g/ha) is 81% and 93%.

On to `CO/C=C(\Oc1cc(-n2ccc(OC(C)C)n2)ccc1C)C(=O)OC` [X.03, methyl (Z)-2-[5-(3-isopropoxypyrazol-1-yl)-2-methyl-phenoxy]-3-methoxy-prop-2-enoate], for which the melting point fell in the range of 94 to 97 °C. Besides, in data set [1], the pest or weed control at 200 ppm was no less than 80%. Besides, the pest or weed control at 200 ppm in data set [2] is no less than 80%. Further, in data set [3], the pest or weed control at 67 ppm is no less than 80%. In addition, the inhibition of growth at 6.7 ppm in data set [4] was no less than 80%.

`CO/C=C(\Oc1cc(-n2ccc(C3CCC3)n2)ccc1C)C(=O)OC` [X.04, methyl (Z)-2-[5-(3-cyclobutylpyrazol-1-yl)-2-methyl-phenoxy]-3-methoxy-prop-2-enoate]: the melting point is 91 to 94 °C. The compound also came in with a pest or weed control at 200 ppm in [1] of no less than 80%. The same compound yielded a pest or weed control at 200 ppm in data set [2] of no less than 80%. Besides, the pest or weed control at 67 ppm in data set [3] is no less than 80%. The same compound registered an inhibition of growth at 6.7 ppm in [4] of no less than 80%.

Compound `CO/C=C(\Oc1cc(-n2ncc(C(F)(F)F)n2)ccc1C)C(=O)OC` [X.10, methyl (Z)-3-methoxy-2-[2-methyl-5-[4-(trifluoromethyl)triazol-2-yl]phenoxy]prop-2-enoate] had a melting point of 107 to 109 °C. Moreover, in data set [1], the pest or weed control at 200 ppm is no less than 80%. The same compound came in with a pest or weed control at 200 ppm in data set [2] of no less than 80%. In addition, the pest or weed control at 67 ppm in data set [3] is no less than 80%. Further, the inhibition of growth at 6.7 ppm in data set [4] is no less than 80%. Moreover, the inhibition at 0.03 ppm in data set [5] was 0%. For the same compound, in [6], the inhibition at 0.003125 ppm turned out to be 70% and the inhibition at 0.00625 ppm turned out to be 90%. Moreover, in data set [6] (0.03 ppm, read-out: Activity (%) A), the inhibition at 0.03 ppm amounted to 0%. Further, in data set [7] (Zymoseptoria tritici, 72 h, 0.003125 ppm), the inhibition at 0.003125 ppm came out at 70%. For the same compound, the inhibition at 0.00625 ppm in [7] (Zymoseptoria tritici, 72 h) stood at 90%. The inhibition at 0.03 ppm in [7] (Zymoseptoria tritici, 72 h, 72 hrs) turned out to be 0%. Moreover, in [8], the inhibition at 0.003125 ppm was found to be 70% and the inhibition at 0.00625 ppm amounted to 90%. In [8] (0.03 ppm), the inhibition at 0.03 ppm turned out to be 0%.

Compound `CO/C=C(\Oc1cc(-n2ccc(CC(C)C)n2)ccc1C)C(=O)OC` [X.05, methyl (Z)-2-[5-(3-isobutylpyrazol-1-yl)-2-methyl-phenoxy]-3-methoxy-prop-2-enoate] gave a melting point of 76 to 80 °C. The compound further gave a pest or weed control at 200 ppm in data set [1] of no less than 80%. The compound further yielded a pest or weed control at 200 ppm in [2] of no less than 80%. This compound returned a pest or weed control at 67 ppm in data set [3] of no less than 80%. Also, the inhibition of growth at 6.7 ppm in data set [4] was no less than 80%.

The values above are taken from patent US20230131427A1, “FUNGICIDAL COMPOSITIONS” (SYNGENTA CROP PROTECTION AG, priority 2020, published 2023).
